Legend:
[1] = Drug uptake in Sprague-Dawley rat blood at 2 mg/kg administered via nasal cavity after 10 mins; format: ADME, organism-based; design: dose 2 mg/kg; settings: inhaled or intranasal, read-out: Drug uptake
Brain [2] = assay: Drug uptake in rat brain homogenate at 18.2 uM after 30 mins by LC-MS/MS analysis; format: ADME, tissue-based; settings: in vivo, 0.5 h
[3] = Drug uptake in Sprague-Dawley rat brain at 2 mg/kg administered via nasal cavity after 10 mins; format: ADME, organism-based; design: dose 2 mg/kg; settings: inhaled or intranasal, read-out: Drug uptake
[4] = Half life in human plasma by RP-HPLC analysis; format: ADME, cell-free
[5] = Drug uptake in Sprague-Dawley rat olfactory bulb at 2 mg/kg administered via nasal cavity after 10 mins; format: ADME, organism-based; design: dose 2 mg/kg; settings: inhaled or intranasal, read-out: Drug uptake
Brain [6] = assay: Drug uptake in rat brain homogenate at 6.5 uM after 30 mins by LC-MS/MS analysis; format: ADME, tissue-based; settings: in vivo, 0.5 h
Plasma = assay: Drug degradation in human plasma assessed as N-lactose endomorphin1 formation after 2 mins by RP-HPLC analysis; format: ADME, cell-free

Question: Which concentration at 10 min [1] does the source give for `NC(=O)[C@H](Cc1ccccc1)NC(=O)[C@H](Cc1c[nH]c2ccccc12)NC(=O)[C@@H]1CCCN1C(=O)[C@H](Cc1ccc(O)cc1)NC(=O)CCC(=O)N[C@@H]1O[C@H](CO)[C@@H](O[C@@H]2O[C@H](CO)[C@H](O)[C@H](O)[C@H]2O)[C@H](O)[C@H]1O` here?
Answer: 1.6 nM

Question: What about the Drug uptake (Brain [2]) of the same compound?
Answer: 18.12 µM

Question: And the concentration at 10 min [3]?
Answer: 4 nM

Question: What about the half-life [4] of the same compound?
Answer: 12.9 min

Question: And the concentration at 10 min [5]?
Answer: 514 nM

Question: What about the Drug uptake (Brain [6]) of the same compound?
Answer: 3.4 µM

Question: With `NC(=O)[C@H](Cc1ccccc1)NC(=O)[C@H](Cc1c[nH]c2ccccc12)NC(=O)[C@@H]1CCCN1C(=O)[C@@H](N)Cc1ccc(O)cc1` [ENDOMORPHIN-1] as the compound, how does the half-life [4] read?
Answer: 5.9 min

Question: Which Stability (Plasma) does the source give for `CC(=O)OC[C@H]1O[C@@H](O[C@H]2[C@H](OC(C)=O)[C@@H](OC(C)=O)[C@H](NC(=O)CCC(=O)N[C@@H](Cc3ccc(O)cc3)C(=O)N3CCC[C@H]3C(=O)N[C@@H](Cc3c[nH]c4ccccc34)C(=O)N[C@@H](Cc3ccccc3)C(N)=O)O[C@@H]2COC(C)=O)[C@H](OC(C)=O)[C@@H](OC(C)=O)[C@H]1OC(C)=O` here?
Answer: Unstable

Source: ChEMBL document CHEMBL3124754, “Delivery of a lactose derivative of endomorphin 1 to the brain via the olfactory epithelial pathway” (Bioorg Med Chem Lett, 2014)
